Experimental data reported in patent US6353017B1, “Dipeptide nitriles” (Novartis AG, priority 1997, dated 2002).

melting point: 152 to 153 °C
Compound: COC(=O)c1cccc(OCCC(C#N)NC(=O)[C@H](Cc2cccc(C)c2)NC(=O)C(c2ccccc2)c2ccccc2)c1 (stereo partly drawn) [Example 305, N-[3-(3-(methoxycarbonyl)-phenoxy)-1-cyanopropyl]-3-methyl-Nα-(2,2-diphenylacetyl)-L-phenylalaninamide]
